Experimental data from patent publication US9688760B2, “Anti-leukocyte adhesion for the mitigation of potential adverse events caused by CD3-specific binding domains” (AMGEN RESEARCH (MUNICH) GMBH, priority 2013, dated 2017).

System: HBMEC
Test: In vitro flow chamber: T cell-rolling on HBMEC, long-term conditions
Type: cell-based, human
Description: Human brain microvascular endothelial cells (HBMEC) (#1000, Sciencell Research Laboratories) or human umbilical vein endothelial cells (HUVEC) (#C-12200, Promocell) were used as endothelial cell-model. Cryopreserved HBMEC at passage 1 (>5×10^5 cells/ml) were first cultivated in fibronectin-coated Nunclon-treated 75 cm^2 cell culture flasks (#156499, Nunc) at 37° C. and 5% CO2 in a Heraeus Cytoperm 2 (Thermo Scientific) according to the manufacturer's instructions. Sub-cultivation of HBMEC was done with the Detach Kit (#C-41200, Promocell) consisting of HEPES-buffered balanced salt solution (#C-40000, Promocell), trypsin-EDTA solution (0.04%/0.03%) (#C-41000, Promocell) and trypsin neutralization solution (TNS, #C-41100, Promocell). Briefly, the medium was aspirated from the HBMEC-layer and cells were washed with 2 ml of HEPES-buffered balanced salt solution. Addition of 2 ml of trypsin-EDTA solution for 1-5 min at room temperature led to detachment of HBMEC from the flask bottom. Inactivation of trypsin-EDTA solution was performed by addition of 2 ml of trypsin neutralization solution to the cell suspension. Cells were centrifuged at 300 g for 4 min in a Heraeus Megafuge 40 (Thermo Scientific) and seeded at a cell density of 5×10^5 cells per gelatin-coated 75 cm^2 cell culture flask (#L7230, Biochrom). HBMEC for rolling and adhesion experiments were cultivated in RPMI 1640 medium (#FG1215, Biochrom) supplemented with Nu-Serum IV (10%) (#355505, BD Biosciences), dialyzed FBS (10%) (#SZ0115, Biochrom), MEM-vitamins (1%) (#K0373, Biochrom), L-glutamine (1%) (#K0283, Biochrom), sodium-pyruvate (1%) (#L0473, Biochrom), heparin (10 U/ml) (#L6510, Biochrom), and […] cell growth factor ECGS (30 μg/ml) (#02-102, Millipore). Cultivation of HUVEC was done in endothelial cell growth medium (#C-22010, Promocell) supplemented with dialyzed FBS (10%) (#SZ0115, Biochrom) using gelatin-coated 75 cm^2 cell culture flasks. Sub-cultivation of HUVEC was performed with the Detach Kit ([…], Promocell) and cells were seeded at a cell density of 4.0-7.5×10^5 cells per 75 cm^2 cell culture flask.
Isolation of human PBMC from blood was performed by modified density gradient centrifugation as described elsewhere. Briefly, 15-20 ml of freshly drawn heparinized blood was transferred in Biocoll (#L6115, Biochrom)-containing Leukosep tubes (#227290, Greiner bio-one) and centrifuged in a Hettich Rotanta 460 RS Type 5606 (Hettich Laborapparate) at 1066 g for 15 min. After removal of the plasma fraction the PBMC containing phase was transferred in a new tube and washed twice with FACS-buffer (D-PBS #L1820, 5% FBS #SO115, Biochrom). Erythrocyte lysis was performed with lysis buffer (8.29 g/l NH4Cl, 1.00 g/l KHCO3, 0.037 g/l EDTA) for 5 min at room temperature. For subsequent purification of untouched T cells the human Pan T cell-isolation Kit II (#130-091-156, Miltenyi Biotec) was used according to the manufacturer's instructions.
The ibidi Pump System (#10902, ibidi) was used for cultivation of endothelial cells under flow conditions as well as for performing adhesion and rolling assays of human T cells on endothelial cells. The system consists of the ibidi Pump (#10905, ibidi) and the ibidi Fluidic Unit (#10903, ibidi) which work together to generate a unidirectional flow of medium in an attached slide with a defined channel height. The system is controlled by the ibidi Pump Control software (#10908, notebook+software, ibidi). For cultivation of HBMEC or HUVEC under flow conditions, HBMEC or HUVEC were seeded at a cell density of 2.5×10^6 cells/ml into μ-slide I^0.4 Luer Collagen IV (#80172, ibidi) or μ-slide I^0.4 Luer ibiTreat (#80176, ibidi), respectively according to the manufacturer's instructions and cultivated with a perfusion set “yellow/green” (#10964, ibidi) for 48 h under wall shear stress of 5 or 10 dyn/cm^2, respectively. […]

For “Blinatumomab: recombinant CD19×CD3 bispecific scFv antibody consisting of four immunoglobulin variable domains assembled into a single polypeptide chain”, the “T cell-rolling velocity immediately after addition” value (10 ng/ml Blinatumomab, 0 min, long-term) was “no decrease of T cell-rolling velocity was detectable”, the “mean T cell-rolling velocity±SD” value (10 ng/ml Blinatumomab, 45 min after addition, long-term, control −AMG 103 323±78) was 209±40 μm/sec and the “mean T cell-rolling velocity±SD” value (histamine-stimulated HBMEC, +AMG 103 10 ng/ml, 45 min, control −AMG 103 430±92) was 281±96 μm/sec. For the same substance, the “mean T cell-rolling velocity±SD” value (non-stimulated HBMEC (PPS experiment), +AMG 103 10 ng/ml, 40 min, control −AMG 103 399±153) was 263±66 μm/sec, the “mean T cell-rolling velocity±SD” value (non-stimulated HBMEC (anti-CD11a experiment), +AMG 103 10 ng/ml, 10 min, control −AMG 103 304±40) was 214 μm/sec and the “mean T cell-rolling velocity±SD” value (non-stimulated HBMEC (anti-CD162 experiment), +AMG 103 10 ng/ml, 45 min, control −AMG 103 539±149) was 428±89 μm/sec. The “mean T cell-rolling velocity±SD” value (non-stimulated HBMEC (anti-ICAM-1 experiment), +AMG 103 10 ng/ml, 30 min, control −AMG 103 407±90) was 335 μm/sec, the “mean T cell-rolling velocity±SD” value (non-stimulated HBMEC (anti-P-selectin experiment), +AMG 103 10 ng/ml, 40 min, control −AMG 103 449±90) was 370±55 μm/sec and the “mean T cell-rolling velocity±SD” value (non-stimulated HBMEC (natalizumab experiment), +AMG 103 10 ng/ml, 40 min, control −AMG 103 482±149) was 359±102 μm/sec. The “mean T cell-rolling velocity±SD” value (non-stimulated HBMEC (recombinant P-selectin experiment), +AMG 103 10 ng/ml, 45 min, control −AMG 103 386±77) was 340±68 μm/sec.
